Columns and labels:
[1] = molecular target: T1, PpArsN1 (ArsN1 N-acetyltransferase) (Pseudomonas putida, UniProt Q88LK7)
T1 construct: gene PP_1924

[2] = molecular target: T2, SvPAT (phosphinothricin N-acetyltransferase) (Streptomyces viridochromogenes, UniProt Q57146); assay: DTNB acetyltransferase assay, Km; details: read-out: Specific activity (nmol s^-1 mg^-1 PpArsN1) / Km
T2 construct: gene pat

[3] = molecular target: T1, PpArsN1 (ArsN1 N-acetyltransferase); remark: listed apart in the source
glutamine synthetase [4] = molecular target: T3, glutamine synthetase (Escherichia coli, UniProt P0A9C5); assay: coupled ADP/NADH oxidation assay with purified enzyme; format: biochemical
T3 construct: gene glnA

glutamine synthetase [5] = molecular target: T3, glutamine synthetase; assay: coupled ADP/NADH oxidation assay, Km; format: biochemical
[6] = molecular target: PpArsN1, arsinothricin N-acetyltransferase ArsN1 of Pseudomonas putida KT2440 (Pseudomonas putida KT2440); assay: SEC; size-exclusion chromatography of purified PpArsN1 in solution (Supplementary Figure 2); conditions not given
[7] = tested on: CP(=O)(O)CC[C@H](N)C(=O)O; assay: purified protein; details: acetyl coenzyme A

T3 sequence (P0A9C5 2-469): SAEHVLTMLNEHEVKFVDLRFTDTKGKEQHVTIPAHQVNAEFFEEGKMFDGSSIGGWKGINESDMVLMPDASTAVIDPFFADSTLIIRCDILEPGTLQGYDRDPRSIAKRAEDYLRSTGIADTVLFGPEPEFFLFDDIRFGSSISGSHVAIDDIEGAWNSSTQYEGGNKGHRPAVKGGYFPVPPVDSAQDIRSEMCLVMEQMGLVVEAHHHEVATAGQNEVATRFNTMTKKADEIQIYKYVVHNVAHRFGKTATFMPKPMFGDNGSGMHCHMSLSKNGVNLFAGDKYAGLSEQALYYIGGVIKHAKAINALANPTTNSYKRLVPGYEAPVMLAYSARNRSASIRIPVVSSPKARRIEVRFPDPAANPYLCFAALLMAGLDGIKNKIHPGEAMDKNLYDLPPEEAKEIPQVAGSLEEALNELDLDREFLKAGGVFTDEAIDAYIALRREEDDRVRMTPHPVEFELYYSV
T2 sequence (Q57146 whole entry, looked up): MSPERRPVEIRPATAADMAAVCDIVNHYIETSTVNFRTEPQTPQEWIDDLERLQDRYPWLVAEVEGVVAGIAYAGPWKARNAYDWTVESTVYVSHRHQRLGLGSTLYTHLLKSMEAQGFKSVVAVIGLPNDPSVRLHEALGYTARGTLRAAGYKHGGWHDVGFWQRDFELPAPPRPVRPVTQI

`C[As](=O)(O)CC[C@H](N)C(=O)O` [AST, 2-amino-4-(hydroxymethylarsinoyl)butanoate] showed a Km [1] of 11 ± 3 µM and a Km [2] of 12 ± 2 µM.
With `CS(=N)(=O)CC[C@H](N)C(=O)O` (stereo partly drawn) [L-MSO, L-methionine sulfoximine] the “Specific activity (nmol s^-1 mg^-1 PpArsN1) / Substrate” value [3] was 2.1 ± 0.1 nmol/s/mg.
Compound `CP(=O)(O)CC[C@H](N)C(=O)O` [L-PPT, 2-amino-4-(hydroxymethylphosphinyl)butanoate] has a Ki (glutamine synthetase [4]) of 400 ± 150 nM.
Compound `N[C@@H](CCC(=O)O)C(=O)O` [L-glutamate] has a Km (glutamine synthetase [5]) of 2700 ± 600 µM.
For “PpArsN1, arsinothricin N-acetyltransferase ArsN1 of Pseudomonas putida KT2440 (enzyme)”, the stoichiometry N [6] was 2.
Work on “SvPAT (phosphinothricin N-acetyltransferase) (Streptomyces viridochromogenes DSM 40736)” yielded a Km [7] of 47 ± 2 µM, a kcat [7] of 3.1 s⁻¹ and a kcat/Km [7] of 66000 M⁻¹ s⁻¹.

Source: article PMC6465285, “Arsinothricin, an arsenic-containing non-proteinogenic amino acid analog of glutamate, is a broad-spectrum antibiotic” (Communications Biology, 2019)
